Measured values: US20130024954A1, “Human Age-Related Neurodegenerative Nematode Model and Methods” (priority 2011, published 2013)

Legend:
VC4 and VC5 neurons = test: Quantification of percent neurodegeneration of VC4&5 neurons with drug treatment (Example 2); assay type: in vivo, C. elegans; settings: for neurodegeneration induced by APP or apl-1 (in words): 50 μM from L4-larval stage onward, FIG. 25A; for degeneration with gain-of-function mutation in egl-1 (in words): SC_APP and SC_apl-1 strains with egl-1 gain-of-function mutation; for degeneration of VC4&5, SC_APPC59 strain (in words): SC_APPC59 strain (intracellular portion of APP); for degeneration of VC4&5, SC_APPC59 strain (in words) / degeneration of VC4&5, SC_APPN636 strain (in words): FIG. 31; for degeneration of VC4&5, SC_APPN636 strain (in words): SC_APPN636 strain (extracellular and transmembrane portion of APP); for degeneration in egl-1 (null) mutant background (in words): egl-1 (null) background, FIG. 25C
Description: All analyses were completed with the experimenter blind to genotype and drug treatment. Age-synchronized animals were immobilized on 2% agar pads containing 0.7 mM sodium azide. Neurons that had broken/missing axonal projections, dimly-lit somas with missing projections or absent GFP labeling in the appropriate neuronal location were classified as degenerating. Serotonin neurons included NSM, ADF, AIM, RIH, HSN class members. All animals were evaluated within 10 minutes of azide treatment. In cases where the worm strains were too defective in egg laying to reach day 3 or 5 adult stage, animals were treated at L4-larval stage onward with the sterilization drug 5-fluoro-2′-deoxyuridne (0.12 mM final) (Sigma). […] The percentage of VC4 and VC5 neurons that succumbed to APP-induced degeneration was compared for different groups (strain, age, drug condition) using planned non-parametric X^2 analyses.
Drugs were freshly prepared in buffer (M9) solution and pipetted onto small seeded plates. These plates were allowed to dry at least 2 hours at RT before use. The final drug concentrations of solid media are: Dimebon, 50 μM (Tocris); P7C3, 50 μM. Well-fed larval stage 4 animals were picked onto seeded plates with or without drug. Animals were then allowed to age at 20° C. for ˜20 (day 1 adult), ˜68 (day 3 adult) and ˜116 hours (day 5 adult) before analysis. Controls using buffer with no drug were performed on each strain for each assay, and each assay was repeated multiple (3-8) times. Data were then averaged and statistically compared with planned non-parametric X2 analyses (Zar, 1999).

[1] = system: egg-laying and swimming behaviors; test: Egg-retention assay and swimming kinematics (behaviors that depend on VC4&5 neurons); assay type: in vivo, C. elegans; settings: for egg-laying and swimming behaviors, SC_APPC59 strain (in words): data not shown; for behavioral deficits (swimming and egg laying) with age (in words): drug-treated SC_APP:mCh or SC_apl-1:mCh individuals
Description: Plates of non-starved adult worms were bleached to yield a synchronized population of eggs. Eggs were allowed to develop for ˜55 hours (day 1 adult) and ˜103 (day 3 adult) hours at 20° C. Animals were then individually dissolved in 1N NaOH, and eggs retained within the dissolved adult animal were counted.
Worms were submerged in NGM liquid and recorded for 1 minute following a 2-minute acclimation period. Spine analysis software was then used to calculate and plot the midbody angle of the worm as described in Pierce-Shimomura J T, Chen B L, Mun J J, Ho R, Sarkis R, McIntire S L. 2008. Genetic analysis of crawling and swimming locomotory patterns in C. elegans. Proc Natl Acad Sci USA. 105: 20982-7, incorporated by reference. Head-bend frequency was determined based on the average time it took an animal to make 20 complete-cycle head bends.

neurons VC4 and VC5 = test: Degeneration of VC4 and VC5 neurons in single-copy apl-1/huAPP695 overexpression worms treated with drugs (Example 1); assay type: in vivo, C. elegans; settings: for APP-induced degeneration of VC4 and VC5 (in words): Example 1, FIG. 19, Table 3; for % degen / Day 1 (degenerated of counted) / Day 3 (degenerated of counted) / Day 5 (degenerated of counted): Dimebon
Text: Many transgenic strains can be easily obtained from a public consortium (CGC), including those with specific neurons fluorescently labeled in a variety of colors. If not publicly available, these strains can be easily constructed using a PCR fusion approach. Final PCR products contain the GFP gene driven by a specific promoter-of-interest and are then microinjected into the gonad of adult wildtype animals. C. elegans have the ability to form a stable, functional extra-chromosomal array with injected PCR products. Therefore, they express injected DNA. Fluorescent worms are then crossed to the single-copy overexpression worms to generate overexpression worms with different identifiable sets of neurons labeled.

[2] = system: adult-born neurons in the hippocampus; settings: earlier reports; cited from earlier work
[3] = SC_huAPP695 strain, adult day 1
[4] = SC_huAPP695 strain, adult day 3
[5] = SC_huAPP695 strain, adult day 5

## O=c1[nH]c(=O)n([C@H]2C[C@H](O)[C@@H](CO)O2)cc1F [5-fluoro-2′-deoxyuridne]
VC4 and VC5 neurons; 0.12 mM final, from L4-larval stage onward (sterilization drug)
  effect on progression of degeneration of VC neurons (in words): no effect on the progression of degeneration of VC neurons
[1]; 0.12 mM final, swimming kinematics
  swimming defect of single-copy APP or apl-1 strains after sterilization (in words): displayed the same defect

## CN1CCN2c3ccccc3Cc3ccccc3C2C1 (stereo not shown) [Mianserin]
Neurons VC4 and VC5
  APP-induced degeneration of VC4 and VC5 (in words): prevent APP-induced degeneration

## CN1CCN2c3ncccc3Cc3ccccc3C2C1 (stereo not shown) [Mirtazapine]
Neurons VC4 and VC5
  APP-induced degeneration of VC4 and VC5 (in words): prevent APP-induced degeneration

## OC(CNc1ccccc1)Cn1c2ccc(Br)cc2c2cc(Br)ccc21 (stereo not shown) [P7C3]
VC4 and VC5 neurons
  neurodegeneration induced by APP or apl-1 (in words): significantly prevented neurodegeneration
  degeneration with gain-of-function mutation in egl-1 (in words): failed to prevent degeneration
  degeneration of VC4&5, SC_APPC59 strain (in words): prevented degeneration
  degeneration of VC4&5, SC_APPN636 strain (in words): failed to provide protection
  degeneration in egl-1 (null) mutant background (in words): no further protection from degeneration
VC4 and VC5 neurons; prevention of VC4&5 degeneration, FIG. 25B
  relative potency in dose response analysis: two-orders of magnitude more potent than Dimebon
[1]
  egg-laying and swimming behaviors, SC_APPC59 strain (in words): protection of egg-laying and swimming behaviors
  behavioral deficits (swimming and egg laying) with age (in words): without behavioral deficits
[2]
  adult-born hippocampal neurons (in words): increase the number of adult-born neurons in the hippocampus of mice

## Cc1ccc2c(c1)c1c(n2CCc2ccc(C)nc2)CCN(C)C1 [Dimebon]
VC4 and VC5 neurons
  neurodegeneration induced by APP or apl-1 (in words): prevented neurodegeneration
  degeneration with gain-of-function mutation in egl-1 (in words): failed to prevent degeneration
  degeneration of VC4&5, SC_APPC59 strain (in words): prevented degeneration
  degeneration of VC4&5, SC_APPN636 strain (in words): failed to provide protection
  degeneration in egl-1 (null) mutant background (in words): no further protection from degeneration
[1]
  egg-laying and swimming behaviors, SC_APPC59 strain (in words): protection of egg-laying and swimming behaviors
  behavioral deficits (swimming and egg laying) with age (in words): without behavioral deficits
Neurons VC4 and VC5
  APP-induced degeneration of VC4 and VC5 (in words): prevents APP-induced neurodegeneration
Neurons VC4 and VC5; SC_apl-1 strain, adult day 1
  % degen: 8.97%
  Day 1 (degenerated of counted): 14 of 156
Neurons VC4 and VC5; SC_apl-1 strain, adult day 3
  % degen: 15.88%
  Day 3 (degenerated of counted): 27 of 170
Neurons VC4 and VC5; SC_apl-1 strain, adult day 5
  % degen: 17.64%
  Day 5 (degenerated of counted): 12 of 68
Neurons VC4 and VC5; [3]
  % degen: 10.66%
  Day 1 (degenerated of counted): 13 of 122
Neurons VC4 and VC5; [4]
  % degen: 15.45%
  Day 3 (degenerated of counted): 17 of 110
Neurons VC4 and VC5; [5]
  % degen: 16.67%
  Day 5 (degenerated of counted): 13 of 78
Neurons VC4 and VC5; Wild-type strain, adult day 1
  % degen: 4.63%
  Day 1 (degenerated of counted): 5 of 108
Neurons VC4 and VC5; Wild-type strain, adult day 3
  % degen: 6.45%
  Day 3 (degenerated of counted): 8 of 124
Neurons VC4 and VC5; Wild-type strain, adult day 5
  % degen: 12.93%
  Day 5 (degenerated of counted): 15 of 116
[2]
  adult-born hippocampal neurons (in words): promote the survival (prevent death) of adult-born hippocampal neurons
